Biological target: Recombinant human LSD1 (Homo sapiens, UniProt O60341)
Assay: LSD1 inhibition assay (HTRF LSD1 Histone H3K4 mono-demethylation assay, me1->me0)
Assay type: biochemical
Details: 20 nM recombinant human LSD1, 95 nM H3K4(me1) biotinylated peptide, 15 min preincubation, 60 min at 25° C., read-out: LSD1 inhibition IC50 (nM range)
Method in brief: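 HTRF demethylation (me1->me0) read-out: streptavidin-XL665 and anti-H3K4me0 cryptate added after reaction, ratio measured after 90 min dark. Reaction: 95 nM H3K4me1 biotin-peptide, 20 nM LSD1 (15-min compound pre-incubation), 60 min, 25 °C, buffer pH 8.5 plus FAD and DTT; 4-parameter logistic IC50.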

| IC50 | Structure (SMILES) |
| --- | --- |
| 100 to 1000 nM | CN1CCC2CN(Cc3cccc(-c4ccc(C#N)c(F)c4)c3C3CC3)CC21 (centres unmarked) [Example 276, 2'-cyclopropyl-3-fluoro-3'-({1-methyl-octahydropyrrolo[2,3-c]pyrrol-5-yl}methyl)-[1,1'-biphenyl]-4-carbonitrile] |
| 100 to 1000 nM | Cc1cc(CN2C[C@@H]3C[C@H]2CN3C(C)C)c(Cl)c(-c2ccc(C#N)c(F)c2)c1 [Example 297, 2'-chloro-3-fluoro-5'-methyl-3'-{[(1S,4S)-5-(propan-2-yl)-2,5-diazabicyclo[2.2.1]heptan-2-yl]methyl}-[1,1'-biphenyl]-4-carbonitrile] |
| 100 to 1000 nM | N#Cc1ccc(-c2cccc(CN3CCC4(CNC4)C3)c2Cl)cc1F [Example 341, 2'-chloro-3'-({2,6-diazaspiro[3.4]octan-6-yl}methyl)-3-fluoro-[1,1'-biphenyl]-4-carbonitrile] |
| 10 to 25 nM | CC(C)C1(O)CCN(c2ccc(CN3C[C@]4(N)CC[C@H]3C4)cc2-c2ccc(C#N)c(F)c2)CC1 [Example 262, 5'-{[(1S,4S)-4-amino-2-azabicyclo[2.2.1]heptan-2-yl]methyl}-3-fluoro-2'-[4-hydroxy-4-(propan-2-yl)piperidin-1-yl]-[1,1'-biphenyl]-4-carbonitrile] |
| 10 to 25 nM | N#Cc1ccc(-c2cc(C3CC3)cc(CC3CNCCO3)c2-c2cncs2)cc1F (centres unmarked) [Example 57, 5′-cyclopropyl-3-fluoro-3′-[(morpholin-2-yl)methyl]-2′-(1,3-thiazol-5-yl)-[1,1′-biphenyl]-4-carbonitrile] |
| 25 to 100 nM | N#Cc1ccc(-c2cccc(CN3C[C@]4(N)CC[C@H]3C4)c2Cl)cc1F [Example 196, 3'-{[(1S,4S)-4-amino-2-azabicyclo[2.2.1]heptan-2-yl]methyl}-2'-chloro-3-fluoro-[1,1'-biphenyl]-4-carbonitrile] |
| 100 to 1000 nM | CC(c1ccc(N2CCC2)c(-c2ccc(C#N)c(F)c2)c1)C1CNCCO1 (centres unmarked) [Example 76, 2′-(azetidin-1-yl)-3-fluoro-5′-[1-(morpholin-2-yl)ethyl]-[1,1′-biphenyl]-4-carbonitrile] |
| > 1000 nM | N#Cc1ccc(-c2cccc(CN3CCNCC(F)(F)C3)c2Cl)cc1F [Example 338, 2'-chloro-3'-[(6,6-difluoro-1,4-diazepan-1-yl)methyl]-3-fluoro-[1,1'-biphenyl]-4-carbonitrile] |
| 100 to 1000 nM | N#Cc1ccc(-c2cccc(CN3CCCC(N)C3)c2Cl)cc1F (centres unmarked) [Example 332, 3'-[(3-aminopiperidin-1-yl)methyl]-2'-chloro-3-fluoro-[1,1'-biphenyl]-4-carbonitrile] |
| 100 to 1000 nM | N#Cc1ccc(-c2cc(CC3CNCCO3)ccc2N2CCC(O)(C(F)(F)F)CC2)cc1F (centres unmarked) [Example 151, 3-fluoro-2′-[4-hydroxy-4-(trifluoromethyl)piperidin-1-yl]-5′-[(morpholin-2-yl)methyl]-[1,1′-biphenyl]-4-] |
| 10 to 25 nM | N#Cc1ccc(-c2cccc(C[C@@H]3CNCCO3)c2-c2cncs2)cc1F (single isomer, unassigned) [Example 23] |
| > 1000 nM | COc1ccc(CC2CNCCO2)cc1-c1ccc(C#N)c(F)c1 (centres unmarked) [Example 142, 3-fluoro-2′-methoxy-5′-[(morpholin-2-yl)methyl]-[1,1′-biphenyl]-4-carbonitrile] |
| 100 to 1000 nM | N#Cc1ccc(-c2cc(CC3CNCCO3)ccc2N2CCC3(CCOC3)C2)cc1F (centres unmarked) [Example 119, 3-fluoro-5′-[(morpholin-2-yl)methyl]-2′-{2-oxa-7-azaspiro[4.4]nonan-7-yl}-[1,1′-biphenyl]-4-carbonitrile] |
| 25 to 100 nM | COCCc1ccc(-c2ccc(CC3CNCCO3)cc2-c2ccc(C#N)c(F)c2)c(F)c1 (centres unmarked) [Example 83, 3-fluoro-2′-[2-fluoro-4-(2-methoxyethyl)phenyl]-5′-[(morpholin-2-yl)methyl]-[1,1′-biphenyl]-4-carbonitrile] |
| 25 to 100 nM | C[C@]1(N)CCN(Cc2cccc(-c3ccc(C#N)c(F)c3)c2C2CC2)C1 [Example 202, 3'-{[(3S)-3-amino-3-methylpyrrolidin-1-yl]methyl}-2'-cyclopropyl-3-fluoro-[1,1'-biphenyl]-4-carbonitrile] |
| 100 to 1000 nM | N#Cc1ccc(-c2ccc(F)c(CN3C[C@@H]4[C@H](N)[C@@H]4C3)c2Cl)cc1F [Example 291, 3'-{[(1R,5S,6S)-6-amino-3-azabicyclo[3.1.0]hexan-3-yl]methyl}-2'-chloro-3,4'-difluoro-[1,1'-biphenyl]-4-carbonitrile] |
| 100 to 1000 nM | C[C@@]1(O)C[C@H]2CN(c3ccc(CC4CNCCO4)cc3-c3ccc(C#N)c(F)c3)C[C@H]2C1 (mixture of isomers) [Example 114, 2′-[(3aR,5S,6aS)-5-hydroxy-5-methyl-octahydrocyclopenta[c]pyrrol-2-yl]-3-fluoro-5′-[(morpholin-2-yl)methyl]-[1,1′-biphenyl]-4-carbonitrile] |
| 10 to 25 nM | N#Cc1ccc(-c2cc(F)cc(C[C@@H]3CNCCO3)c2-c2ccns2)cc1F (single isomer, unassigned) [Example 14] |
| 100 to 1000 nM | CN[C@H]1CCCCN(Cc2cccc(-c3ccc(C#N)c(F)c3)c2C2CC2)C1 [Example 272, 2'-cyclopropyl-3-fluoro-3'-{[(3S)-(methylamino)azepan-1-yl]methyl}-[1,1'-biphenyl]-4-carbonitrile] |

| Structure (SMILES) | IC50 |
| --- | --- |
| N#Cc1ccc(-c2cccc(CN3[C@@H]4CC[C@H]3[C@@H](N)C4)c2OC(F)F)cc1F (racemic) [Example 179, 3'-{[(1S,2S,4R)-2-amino-7-azabicyclo[2.2.1]heptan-7-yl]methyl}-2'-(difluoromethoxy)-3-fluoro-[1,1'-biphenyl]-4-carbonitrile] | 10 to 25 nM |
| N#Cc1ccc(-c2cc(F)cc(CN3[C@H]4CC[C@@H]3[C@H](N)C4)c2C2CC2)cc1F (single isomer, unassigned) [Example 223] | 10 to 25 nM |
| N#Cc1ccc(-c2cccc(CN3[C@@H]4CC[C@H]3[C@@H](N)C4)c2C2CCC2)cc1F (racemic) [Example 218, 3'-{[(1S,2S,4R)-2-amino-7-azabicyclo[2.2.1]heptan-7-yl]methyl}-2'-cyclobutyl-3-fluoro-[1,1'-biphenyl]-4-carbonitrile] | 10 to 25 nM |
| N#Cc1ccc(-c2ccc(F)c(CN3[C@@H]4CC[C@H]3[C@@H](N)C4)c2-c2ccns2)cc1F (racemic) [Example 207, 3'-{[(1S,2S,4R)-2-amino-7-azabicyclo[2.2.1]heptan-7-yl]methyl}-3,4'-difluoro-2'-(1,2-thiazol-5-yl)-[1,1'-biphenyl]-4-carbonitrile] | < 10 nM |
| N#Cc1ccc(-c2cccc(CN3[C@@H]4CC[C@H]3[C@@H](N)C4)c2-c2ccns2)cc1 (racemic) [Example 170, 3'-{[(1S,2S,4R)-2-amino-7-azabicyclo[2.2.1]heptan-7-yl]methyl}-2'-(1,2-thiazol-5-yl)-[1,1'-biphenyl]-4-carbonitrile] | 10 to 25 nM |
| CN[C@@H]1C[C@@H]2CC[C@H]1N2Cc1cccc(-c2ccc(C#N)cc2)c1-c1ccns1 (single isomer, unassigned) [Example 173] | < 10 nM |
| N#Cc1ccc(-c2ccc(F)c(CN3[C@H]4CC[C@@H]3[C@H](N)C4)c2OC(F)F)cc1F (single isomer, unassigned) [Example 169] | 10 to 25 nM |
